Data from paper PMC8341744 (RSC Chemical Biology, 2020).
Where two headings read alike, the source gives them in different places.

Tests used:
Mcl-1 [1] = target: T1, Mcl-1 (Mus musculus, UniProt P97287, F227L/F267C/G222D/K236S/Q303E/S261T/T274S/V232I/V262I); test: FITC-NoxaB Mcl-1 competitive binding fluorescence anisotropy
Mcl-1 [2] = target: T1, Mcl-1; conditions: Mcl-1/Noxa; parent peptide; cited from earlier work

T1 sequence (P97287 152-308 G222D/F227L/V232I/K236S/S261T/V262I/F267C/T274S/Q303E): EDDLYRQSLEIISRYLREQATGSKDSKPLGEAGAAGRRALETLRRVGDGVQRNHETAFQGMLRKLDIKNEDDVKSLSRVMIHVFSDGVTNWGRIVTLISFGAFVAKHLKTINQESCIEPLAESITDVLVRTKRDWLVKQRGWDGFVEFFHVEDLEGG

Row | IC50 (Mcl-1 [1]) | Molecule | IC50 (Mcl-1 [2])
1 | 4.39 µM | CC(=O)O[C@@H]1[C@@H](OC(C)=O)[C@H](OC(C)=O)CO[C@H]1n1cc(-c2ccc(Cl)cc2)nn1 [compound 7, (2R,3R,4S,5R)-2-(4-(4-chlorophenyl)-1H-1,2,3-triazol-1-yl)tetrahydro-2H-pyran-3,4,5-triyl triacetate] | 
2 | 7.03 µM | CC(=O)O[C@@H]1[C@@H](OC(C)=O)[C@H](OC(C)=O)CO[C@H]1n1cc(-c2ccc(Br)cc2)nn1 [compound 8, (2R,3R,4S,5R)-2-(4-(4-bromophenyl)-1H-1,2,3-triazol-1-yl)tetrahydro-2H-pyran-3,4,5-triyl triacetate] | 
3 |  | AAQLRRIGDKVNLRQKLLN [NoxaB-(75–93)-C75A peptide] | 0.65 µM
